Reference: patent publication US9492428B2, “Compounds, compositions, pharmaceutical compositions, and methods of use” (University of Louisville Research Foundation, Inc., priority 2011, dated 2016)
≈ marks a conversion by molar mass, not a printed value.

What was measured:
DU145 cells = assay: MTT assay (cytotoxicity / cell proliferation) in DU145; format: cell-based, human; settings: Homo sapiens, DU-145; MTT assay, FIG. 4; read-out: GI50 against DU145
Method: (§1) FIG. 4. Bioassay of compound I-1, compound I-2, and compound I-3. SPA14-3-2 is pure compound I-2. SPA14-3-3 is pure compound I-3. SPA14-3-4 is pure compound I-1. MTT assays using compound I-1, compound I-2, and compound I-3 against DU145 and RWPE-1 cells lines.
FIG. 8. Cell proliferation assay. (A) DU145 or PC3 prostate cancer were plated at a density of 1,500 cells per well in 96-well plates and incubated 18 hours at 37° C. to allow adherence. They were untreated or treated by addition of different concentrations of compound I-1 (which were added directly to the medium) or vehicle (DMSO), and proliferation was measured using a 3-(4,5-dimethylthiazol-2-yl)-2,5-diphenyltetrazolium bromide MTT assay after 3 days of treatment. Points, mean of triplicate normalized samples to vehicle sample; bars, SE. (B) GI50 after 3 days of treatment. (C) Prostate cancer cells (DU145 or PC3) or a non-malignant epithelial cells (RWPE-1) were plated at a density of 1,000 cells per well in 96-well plates and incubated 18 hours at 37° C. to allow adherence. They were untreated or treated by addition of different concentrations of compound I-1 (added directly to the medium) or vehicle (DMSO), and proliferation was by MTT assay after 5 days of treatment. Points, mean of triplicate normalized samples to vehicle sample; bars, SE.
(§2) Isolation, NMR, and X-ray crystallographic analyses. Leaves, stems, and few fruits of Physalis angulate L (Solanaceae) were collected in Rio Domingusa. Kuith/Barranquita, Amazonas Department, Northeastern Peru, and identified by the team led by Walter Lewis (collection voucher 18597, Ext. 1159). Dried and grounded material (46 g) was extracted with ethanol (1 L, 95%) for 7 days. The evaporated crude extract (6.26 g) was denoted SPA. An aliquot (1.5 g) of SPA was partitioned between dichloromethane (40 mL) and water (40 mL), affording two fractions: organic (SPA1, 500 mg) and aqueous (SPA2, 600 mg). All MTT assays were performed as described in Bates et al. “G-Rich Oligonucleotides for Cancer Treatment” Chapter 21 of Methods in Molecular Biology, Gene Therapy of Cancer, Wolfgang Walther and Ulrike S. Stein (eds.), Vol. 542, 2009, Humana Press. […] SPA14-3 (30 mg) was treated on an HPLC using a reverse phase C18 column eluted in gradient mode of methanol and water (from 80% methanol to 100% methanol) and detected at 254 nm, yielding SPA14-3-1 (0 mg), SPA14-3-2 (1.2 mg of pure compound I-2), SPA14-3-3 (4.1 mg of pure compound I-3), and SPA14-3-4 (18 mg of pure compound I-1).
General Experimental Procedure. Compound I-1 was isolated as described in Example Set 1, above. For samples of compound I-1 used in Example Set 2, HPLC and NMR indicated a purity of at least 95%. All experiments described in Example Set 2 were repeated at least two or three times. […]

RWPE-1 cells = assay: MTT assay (cytotoxicity) in RWPE-1; format: cell-based; settings: Homo sapiens, FIG. 4, read-out: GI50 against RWPE-1
Text: as §1, §2
General Experimental Procedure. Compound I-1 was isolated as described in Example Set 1, above. For samples of compound I-1 used in Example Set 2, HPLC and NMR indicated a purity of at least 95%. All experiments described in Example Set 2 were repeated at least two or three times. All MTT assays were performed according to Bates et al. “G-Rich Oligonucleotides for Cancer Treatment” Chapter 21 of Methods in Molecular Biology, Gene Therapy of Cancer, Wolfgang Walther and Ulrike S. Stein (eds.), Vol. 542, 2009, Humana Press.

## CC12C[C@@H]([C@@]34CC[C@@]5(O3)C3C(O4)[C@H]4O[C@]46CC=CC(=O)[C@]6(C)[C@H]3CC[C@]5(C)O)C(C[C@@]1(C)O)OC2=O (stereo partly shown) [I-3]
DU145 cells
  GI50: 3 µg/mL (≈ 5.99 µM)
RWPE-1 cells
  GI50: 3.3 µg/mL (≈ 6.59 µM)

## CC12C[C@@H]([C@@]34CC[C@@]5(O3)C3C(O4)[C@H]4O[C@]46CC=CC(=O)[C@]6(C)[C@H]3CC[C@@]5(C)O)C(C[C@@]1(C)O)OC2=O (stereo partly shown) [I-2]
DU145 cells
  GI50: 3.4 µg/mL (≈ 6.79 µM)
RWPE-1 cells
  GI50: 3 µg/mL (≈ 5.99 µM)
